Species on record: Rattus norvegicus
Assay: DrugMatrix - Regimen: Daily Repeat
Format: toxicity, organism-based, Sprague-Dawley
Design: regimen Daily Repeat, gender Male, age 6-8 weeks
Conditions: in vivo, po, route oral GAVAGE, vehicle .5 % CMC; for ABSOLUTE BASOPHIL / ABSOLUTE EOSINOPHIL / ABSOLUTE LYMPHOCYTE / ABSOLUTE MONOCYTE / ABSOLUTE SEGMENTED NEUTROPHIL / BASOPHIL / EOSINOPHIL / ERYTHROCYTE COUNT / HEMATOCRIT / HEMOGLOBIN / LEUKOCYTE COUNT / LYMPHOCYTE / MEAN CORPUSCULAR HEMOGLOBIN / MEAN CORPUSCULAR HEMOGLOBIN CONCENTRATION / MEAN CORPUSCULAR VOLUME / MONOCYTE / NEUTROPHIL / NUCLEATED RED BLOOD CELLS / PLATELET COUNT: tissue Blood; for ALANINE AMINOTRANSFERASE / ALBUMIN / ALKALINE PHOSPHATASE / ASPARTATE AMINOTRANSFERASE / BLOOD UREA NITROGEN / CARBON DIOXIDE / CHLORIDE / CHOLESTEROL / CREATINE PHOSPHOKINASE / CREATININE / GLUCOSE / LACTATE DEHYDROGENASE / LIPASE / PHOSPHORUS / POTASSIUM / SODIUM / TOTAL BILIRUBIN / TOTAL PROTEIN / URIC ACID: tissue Plasma
[1] = 30 mg/kg, 72 h, dose level Low, time 3 day
[2] = 30 mg/kg, 120 h, dose level Low, time 5 day
[3] = 570 mg/kg, 72 h, dose level High, time 3 day
[4] = 570 mg/kg, 120 h, dose level High, time 5 day

O=C(O)COc1ccc(C(=O)c2cccs2)c(Cl)c1Cl
ABSOLUTE BASOPHIL [1]: 0 CELLS/uL
ABSOLUTE EOSINOPHIL [1]: 0 CELLS/uL
ABSOLUTE LYMPHOCYTE [1]: 7024 CELLS/uL
ABSOLUTE MONOCYTE [1]: 269 CELLS/uL
ABSOLUTE SEGMENTED NEUTROPHIL [1]: 840.33 CELLS/uL
BASOPHIL [1]: 0%
EOSINOPHIL [1]: 0%
ERYTHROCYTE COUNT [1]: 5.29 x10E6/uL
HEMATOCRIT [1]: 33.2%
HEMOGLOBIN [1]: 12.83 G/DL
LEUKOCYTE COUNT [1]: 8.13 x10E3/uL
LYMPHOCYTE [1]: 86.33%
MEAN CORPUSCULAR HEMOGLOBIN [1]: 24.27 pg
MEAN CORPUSCULAR HEMOGLOBIN CONCENTRATION [1]: 38.67 G/DL
MEAN CORPUSCULAR VOLUME [1]: 62.8 fL
MONOCYTE [1]: 3%
NEUTROPHIL [1]: 10.67%
NUCLEATED RED BLOOD CELLS [1]: 0.67 /100WBC
PLATELET COUNT [1]: 1021.33 x10E3/uL
ALANINE AMINOTRANSFERASE [1]: 60.33 u/L
ALBUMIN [1]: 4.17 G/DL
ALKALINE PHOSPHATASE [1]: 394.67 u/L
ASPARTATE AMINOTRANSFERASE [1]: 94.33 u/L
BLOOD UREA NITROGEN [1]: 14.67 mg/dL
CARBON DIOXIDE [1]: 33.67 mmol/L
CHLORIDE [1]: 99.67 MEQ/L
CHOLESTEROL [1]: 74 mg/dL
CREATINE PHOSPHOKINASE [1]: 524.67 u/L
CREATININE [1]: 0.26 mg/dL
GLUCOSE [1]: 144.67 mg/dL
LACTATE DEHYDROGENASE [1]: 159 u/L
LIPASE [1]: 9.33 u/L
PHOSPHORUS [1]: 12.93 mg/dL
POTASSIUM [1]: 6.21 MEQ/L
SODIUM [1]: 144.4 MEQ/L
TOTAL BILIRUBIN [1]: 0.17 mg/dL
TOTAL PROTEIN [1]: 6.2 G/DL
URIC ACID [1]: 0.5 mg/dL
ABSOLUTE BASOPHIL [2]: 0 CELLS/uL
ABSOLUTE EOSINOPHIL [2]: 52.67 CELLS/uL
ABSOLUTE LYMPHOCYTE [2]: 10475.33 CELLS/uL
ABSOLUTE MONOCYTE [2]: 92 CELLS/uL
ABSOLUTE SEGMENTED NEUTROPHIL [2]: 1380 CELLS/uL
BASOPHIL [2]: 0%
EOSINOPHIL [2]: 0.33%
ERYTHROCYTE COUNT [2]: 5.51 x10E6/uL
HEMATOCRIT [2]: 35.03%
HEMOGLOBIN [2]: 13.53 G/DL
LEUKOCYTE COUNT [2]: 12 x10E3/uL
LYMPHOCYTE [2]: 87.67%
MEAN CORPUSCULAR HEMOGLOBIN [2]: 24.53 pg
MEAN CORPUSCULAR HEMOGLOBIN CONCENTRATION [2]: 38.63 G/DL
MEAN CORPUSCULAR VOLUME [2]: 63.57 fL
MONOCYTE [2]: 0.67%
NEUTROPHIL [2]: 11.33%
NUCLEATED RED BLOOD CELLS [2]: 0 /100WBC
PLATELET COUNT [2]: 1276 x10E3/uL
ALANINE AMINOTRANSFERASE [2]: 51 u/L
ALBUMIN [2]: 4.23 G/DL
ALKALINE PHOSPHATASE [2]: 420.67 u/L
ASPARTATE AMINOTRANSFERASE [2]: 78.33 u/L
BLOOD UREA NITROGEN [2]: 13 mg/dL
CARBON DIOXIDE [2]: 35.67 mmol/L
CHLORIDE [2]: 97.33 MEQ/L
CHOLESTEROL [2]: 80 mg/dL
CREATINE PHOSPHOKINASE [2]: 446.67 u/L
CREATININE [2]: 0.27 mg/dL
GLUCOSE [2]: 136 mg/dL
LACTATE DEHYDROGENASE [2]: 169.67 u/L
LIPASE [2]: 8.33 u/L
PHOSPHORUS [2]: 12.7 mg/dL
POTASSIUM [2]: 6.46 MEQ/L
SODIUM [2]: 142.87 MEQ/L
TOTAL BILIRUBIN [2]: 0.2 mg/dL
URIC ACID [2]: 0.8 mg/dL
ABSOLUTE BASOPHIL [3]: 0 CELLS/uL
ABSOLUTE EOSINOPHIL [3]: 0 CELLS/uL
ABSOLUTE LYMPHOCYTE [3]: 14484.67 CELLS/uL
ABSOLUTE MONOCYTE [3]: 271.67 CELLS/uL
ABSOLUTE SEGMENTED NEUTROPHIL [3]: 1143.67 CELLS/uL
BASOPHIL [3]: 0%
EOSINOPHIL [3]: 0%
ERYTHROCYTE COUNT [3]: 5.25 x10E6/uL
HEMATOCRIT [3]: 32.4%
HEMOGLOBIN [3]: 12.33 G/DL
LEUKOCYTE COUNT [3]: 15.9 x10E3/uL
LYMPHOCYTE [3]: 91.33%
MEAN CORPUSCULAR HEMOGLOBIN [3]: 23.47 pg
MEAN CORPUSCULAR HEMOGLOBIN CONCENTRATION [3]: 38.03 G/DL
MEAN CORPUSCULAR VOLUME [3]: 61.6 fL
MONOCYTE [3]: 1.67%
NEUTROPHIL [3]: 7%
NUCLEATED RED BLOOD CELLS [3]: 0 /100WBC
PLATELET COUNT [3]: 1320.33 x10E3/uL
ALANINE AMINOTRANSFERASE [3]: 61.67 u/L
ALBUMIN [3]: 4.03 G/DL
ALKALINE PHOSPHATASE [3]: 478 u/L
ASPARTATE AMINOTRANSFERASE [3]: 93 u/L
BLOOD UREA NITROGEN [3]: 14.67 mg/dL
CARBON DIOXIDE [3]: 35.67 mmol/L
CHLORIDE [3]: 97 MEQ/L
CHOLESTEROL [3]: 89.67 mg/dL
CREATINE PHOSPHOKINASE [3]: 605.33 u/L
CREATININE [3]: 0.23 mg/dL
GLUCOSE [3]: 141.33 mg/dL
LACTATE DEHYDROGENASE [3]: 128 u/L
LIPASE [3]: 9 u/L
PHOSPHORUS [3]: 10.17 mg/dL
POTASSIUM [3]: 5.26 MEQ/L
SODIUM [3]: 142.77 MEQ/L
TOTAL BILIRUBIN [3]: 0.2 mg/dL
TOTAL PROTEIN [3]: 6.27 G/DL
URIC ACID [3]: 0.47 mg/dL
ABSOLUTE BASOPHIL [4]: 0 CELLS/uL
ABSOLUTE EOSINOPHIL [4]: 0 CELLS/uL
ABSOLUTE LYMPHOCYTE [4]: 19963.33 CELLS/uL
ABSOLUTE MONOCYTE [4]: 319.33 CELLS/uL
ABSOLUTE SEGMENTED NEUTROPHIL [4]: 2417.33 CELLS/uL
BASOPHIL [4]: 0%
EOSINOPHIL [4]: 0%
ERYTHROCYTE COUNT [4]: 5.25 x10E6/uL
HEMATOCRIT [4]: 32.67%
HEMOGLOBIN [4]: 12.47 G/DL
LEUKOCYTE COUNT [4]: 22.7 x10E3/uL
LYMPHOCYTE [4]: 88.33%
MEAN CORPUSCULAR HEMOGLOBIN [4]: 23.73 pg
MEAN CORPUSCULAR HEMOGLOBIN CONCENTRATION [4]: 38.17 G/DL
MEAN CORPUSCULAR VOLUME [4]: 62.33 fL
MONOCYTE [4]: 1.33%
NEUTROPHIL [4]: 10.33%
NUCLEATED RED BLOOD CELLS [4]: 0 /100WBC
PLATELET COUNT [4]: 1428 x10E3/uL
ALANINE AMINOTRANSFERASE [4]: 48 u/L
ALBUMIN [4]: 4.13 G/DL
ALKALINE PHOSPHATASE [4]: 359.33 u/L
ASPARTATE AMINOTRANSFERASE [4]: 74 u/L
BLOOD UREA NITROGEN [4]: 15.67 mg/dL
CARBON DIOXIDE [4]: 34.33 mmol/L
CHLORIDE [4]: 100 MEQ/L
CHOLESTEROL [4]: 70.33 mg/dL
CREATINE PHOSPHOKINASE [4]: 268.67 u/L
CREATININE [4]: 0.29 mg/dL
GLUCOSE [4]: 144 mg/dL
LACTATE DEHYDROGENASE [4]: 153.33 u/L
LIPASE [4]: 6.67 u/L
PHOSPHORUS [4]: 11 mg/dL
POTASSIUM [4]: 6.13 MEQ/L
SODIUM [4]: 144.77 MEQ/L
TOTAL BILIRUBIN [4]: 0.2 mg/dL
TOTAL PROTEIN [4]: 6.1 G/DL
URIC ACID [4]: 1.3 mg/dL

From ChEMBL document CHEMBL3885881, “DrugMatrix”
